Test results as given in patent US20250268878A1, “FERROPORTIN-INHIBITORS FOR THE USE IN THE TREATMENT OF MYELODYSPLASTIC SYNDROMES (MDS)” (Vifor (International) AG, priority 2021, published 2025).
Entries after “also recorded” stand apart in the source; their conditions may differ.

What was measured:
transfused guinea pigs = conditions: cited from earlier work
[1] = tested on: mouse model of β-thalassemia; conditions: cited from earlier work
NUP98-HOXD13 MDS mice [2] = experiment: NUP98-HOXD13 MDS mouse model, rescuing effect (treatment from 5 months of age); assay type: in vivo; conditions: over a total of 10
NUP98-HOXD13 MDS mice [3] = experiment: as above; assay type: in vivo; conditions: for Leukemia development / Anemia after 5 months of treatment: additional results; for Leukemia development: WBC; for Anemia after 5 months of treatment: 10 months of age
Protocol: (§1) • The ferroportin inhibitor compound Fpn127 was tested in NUP98-HOXD13 MDS mice. Fpn127was administered in drinking water containing 1% glucose at the concentration of 0.5 mg/ml.
• To study the rescuing effect of the ferroportin inhibitors according to the invention on the established iron overload and related toxicities in MDS, overall 8 5-month-old MDS mice were treated with the Example Compound Fpn127 and compared to 8 age-and sex-matched MDS untreated mice and wild-type control (1 experiment). Mice were treated from 5 months of age onwards. During the treatment period 3 untreated and 3 treated MDS mice were lost. […] Other 2 mice died without the opportunity to monitor parameters. No molecular analysis of 5 month-old treated mice was obtained as this cohort was kept for further observing and monitoring. To better follow individual blood parameter modulation two cohorts of mice whose treatment has been started at 3 and 5 months of age respectively, are analyzed longitudinally once a month along the treatment.
• To study the rescuing effect of the compound on the established iron overload and related toxicities in MDS, 5-month-old MDS mice were treated and compared to age-and sex-matched untreated MDS mice and wild-type controls. Mice were treated from 5 months of age onwards. […] The anemia of MDS mice tends to worsen from 5 months of age on.

NUP98-HOXD13 MDS mice [4] = experiment: NUP98-HOXD13 MDS mouse model, preventive effect (treatment from 3 months of age); assay type: in vivo; conditions: for Immature Lin+ cKit+ cells in bone marrow: 3 months-long treatment; for Erythropoiesis / erythroid maturation in bone marrow and spleen: CD71 and CD44 loss on Ter119+ cells; for ROS formation in Ter119+ erythroid precursors: flow cytometry; for NTBI levels: serum, 0.5 mg/ml in drinking water
Protocol: as §1
• To study the protective effect of ferroportin inhibitors according to the invention on the progressive development of iron overload and related toxicities, overall 15 3-month-old MDS mice were treated with the Example Compound Fpn127 and compared to age-and sex-matched 15 untreated MDS mice and wild-type control (total of 3 repeated experiments). Mice were treated for 3 months-from 3 to 6 months of age. During the treatment period 2 untreated and 1 treated MDS mice were lost. • MDS mice of 3 months of age already show a certain degree of anemia, which supports to use the ferroportin inhibitors in the treatment starting from 3 months to improve erythropoiesis and anemia (FIG. 1). • About 60-70% of MDS mice show a mild to moderate anemia at 3 months of age. According to Hb levels, 3 month-old MDS mice can be divided into 3 groups presenting very mild, mild and moderate anemia (no/very mild anemia: Hb>13 g/dl; mild anemia: 10 g/dl<Hb<13 g/dl; moderate anemia: 8 g/dl<Hb<10 g/dl) (FIG. 2). Rarely MDS mice show severe anemia at 3 months age (severe anemia: Hb<8 g/dl). This reflects the situation of MDS patients whose 70-80% present anemia at diagnosis with different degree of severity. • In MDS mice treated for 3 months with Fpn127 from 3 to 6 months of age, the following parameters were monitored: • Serum iron levels and NTBI; • Liver iron accumulation; • Anemia and blood parameters; • Erythropoiesis—including RBC maturation, erythroid precursor apoptosis and ROS; • Hematopoietic stem cells—including apoptosis, ROS and DNA damage; • Bone marrow macrophages and myeloid-derived suppressor cells (not shown). • The FIGS. 3 to 15 show the results obtained as average of 3 independent experiments.
• Similar as in the MDS mouse model described above, the kinetic effects of VIT-2763, administered into the drinking water (0.5 mg/ml) was investigated in NUP98-HOXD13 model of MDS.
• To study the protective effect of the compound on the progressive development of iron overload and related toxicities, 3-month-old MDS mice were treated and compared to age-and sex-matched untreated MDS mice and wild-type control. Mice were treated with VIT-2763 from 3 months of age on to follow longitudinally blood parameters and survival (FIGS. 16-19), or for 3 months-from 3 to 6 months of age, for cellular and biochemical analyses (FIGS. 20-24).

[5] = treated from 5 months of age, listed as VIT
[6] = treated from 5 months of age, listed as VIT-2763
[7] = 3 to 6 months of age, listed as VIT
[8] = 3 to 6 months of age, listed as VIT-2763
[9] = Annexin V, MDS mice, 3 to 6 months of age
[10] = MDS mice, 3 to 6 months of age, listed as Example Compound No. 127
[11] = MDS mice, 0.5 mg/ml, 3 to 6 months of age
[12] = MDS mice, 0.5 mg/ml, 3 to 6 months of age, listed as Example Compound No. 127
[13] = bone marrow, MDS mice, 3 to 6 months of age
[14] = treated from 3 months of age on, from 5 through 7 months of age

O=C(NCc1ncccc1F)c1csc(CCNCc2nc3ccccc3[nH]2)n1 [VIT-2653]
Hb levels following exchange transfusion (transfused guinea pigs; guinea pigs, intravenous): significantly improved | NTBI levels following exchange transfusion (transfused guinea pigs; guinea pigs, intravenous): significantly improved | Total iron in kidneys following transfusion (transfused guinea pigs; guinea pigs, intravenous): can be reduced | Occurrence of changes in plasma creatinine >0.3 mg/dL (early acute kidney injury) (transfused guinea pigs; transfused guinea pigs): significantly reduced

O=C(NCc1ncccc1F)c1coc(CCNCCc2nc3ccccc3[nH]2)n1 [Fpn127]
Anemia [1]: ameliorated anemia | Liver iron loading [1]: prevents liver iron loading | Ineffective erythropoiesis ([1]; oral): improves ineffective erythropoiesis | Treated MDS mice still alive at 15 months of age (NUP98-HOXD13 MDS mice [2]): two | Leukemia development (NUP98-HOXD13 MDS mice [3]; [5]): delayed leukemia development | Leukemia development (NUP98-HOXD13 MDS mice [3]; [6]): delays leukemia evolution | Anemia after 5 months of treatment (NUP98-HOXD13 MDS mice [3]; [5]): improved anemia was observed | Anemia after 5 months of treatment (NUP98-HOXD13 MDS mice [3]; [6]): improves anemia | Median survival improvement compared to untreated mice (NUP98-HOXD13 MDS mice [3]; older MDS mice, treated from 5 months of age): about 16 days | Hb of treated mice still alive at 15 months of age (NUP98-HOXD13 MDS mice [3]; stable blood parameters): about 9 g/dl | Survival (Kaplan-Meier) (NUP98-HOXD13 MDS mice [3]; treated from 5 months of age): improves MDS mice survival | Anemia after 3 months of treatment (NUP98-HOXD13 MDS mice [3]; treated from 5 months of age, 5 to 8 months of age): failed to observe improved anemia | Anemia in older MDS mice (NUP98-HOXD13 MDS mice [3]; treated from 5 months of age, mice at 9 and 10 months of age, subset of mice): improves anemia; also recorded: partial improvement of anemia | Progression to leukemia / leukemia-related death (NUP98-HOXD13 MDS mice [3]; treated from 5 months of age, mice that died): reduces leukemia-related death; also recorded: no apparent progression to leukemia | Life span reached by MDS mice benefiting from treatment (NUP98-HOXD13 MDS mice [3]; untreated all dying within 400 days): up to 600 days | Immature Lin+ cKit+ cells in bone marrow (NUP98-HOXD13 MDS mice [4]; [7]): reduced | Immature Lin+ cKit+ cells in bone marrow (NUP98-HOXD13 MDS mice [4]; [8]): reduces | Bone marrow CD11b+ myeloid cells (myeloid expansion) (NUP98-HOXD13 MDS mice [4]; [7]): reduced | IL-1β production by bone marrow macrophages (NUP98-HOXD13 MDS mice [4]; [7]): reduced | Macrophage number in bone marrow (NUP98-HOXD13 MDS mice [4]; [7]): improved macrophage number | Monocytic and granulocytic myeloid-derived suppressor cells (MDSCs) in bone marrow (NUP98-HOXD13 MDS mice [4]; [7]): reduced | TNFα production by bone marrow macrophages (NUP98-HOXD13 MDS mice [4]; [7]): reduced | Bone marrow CD11b+ myeloid cells (myeloid expansion) (NUP98-HOXD13 MDS mice [4]; [8]): reduces myeloid expansion | IL-1β production by bone marrow macrophages (NUP98-HOXD13 MDS mice [4]; [8]): limits | Macrophage number in bone marrow (NUP98-HOXD13 MDS mice [4]; [8]): improves macrophage number | Monocytic and granulocytic myeloid-derived suppressor cells (MDSCs) in bone marrow (NUP98-HOXD13 MDS mice [4]; [8]): reduces myeloid expansion | TNFα production by bone marrow macrophages (NUP98-HOXD13 MDS mice [4]; [8]): limits | Apoptosis in Ter119+ erythroid precursors (NUP98-HOXD13 MDS mice [4]; [9]): decreasing; also recorded: reduced | Cell survival / apoptosis of LSK cells (NUP98-HOXD13 MDS mice [4]; [9]): lower apoptosis | Apoptosis in Ter119+ erythroid precursors (NUP98-HOXD13 MDS mice [4]; Annexin V, MDS mice, 3 to 6 months of age, listed as Example Compound No. 127): prevent their apoptosis | Erythropoiesis / erythroid maturation in bone marrow and spleen (NUP98-HOXD13 MDS mice [4]; MDS mice, 3 to 6 months of age): improves bone marrow erythroid maturation; also recorded: improves splenic erythroid maturation; also recorded: significantly improved | Erythropoiesis / erythroid maturation in bone marrow and spleen (NUP98-HOXD13 MDS mice [4]; [10]): improve ineffective erythropoiesis | Improvement of Hb levels (NUP98-HOXD13 MDS mice [4]; MDS mice treated from 3 months of age, after 2, 3 and 4 months of treatment): about 2 g/dl | Anemia, longitudinal monitoring (NUP98-HOXD13 MDS mice [4]; MDS mice treated with 0.5 mg/ml from 3 months of age): improves anemia | Serum iron levels (NUP98-HOXD13 MDS mice [4]; MDS mice, 0.5 mg/ml in drinking water for 3 months, 3 to 6 months of age): reduces; also recorded: significantly decreased | Anemia (NUP98-HOXD13 MDS mice [4]; [11]): Improved anemia; also recorded: ameliorates anemia | HCT (NUP98-HOXD13 MDS mice [4]; [11]): significantly improved | Hb (NUP98-HOXD13 MDS mice [4]; [11]): significantly improved | Kidney iron content (NUP98-HOXD13 MDS mice [4]; [11]): significantly decreased | Liver iron content (NUP98-HOXD13 MDS mice [4]; [11]): prevents iron loading; also recorded: significantly decreased | MCH (NUP98-HOXD13 MDS mice [4]; [11]): remain unchanged | MCV (NUP98-HOXD13 MDS mice [4]; [11]): remain unchanged | Platelet count (NUP98-HOXD13 MDS mice [4]; [11]): remains unchanged | RBC (NUP98-HOXD13 MDS mice [4]; [11]): significantly improved | Reticulocytes (NUP98-HOXD13 MDS mice [4]; [11]): trend to improvement | Spleen iron (NUP98-HOXD13 MDS mice [4]; [11]): further elevated | WBC count elevation / progression to leukemia (NUP98-HOXD13 MDS mice [4]; [11]): trend in reducing progression to leukemia; also recorded: only one mouse show a trend to elevated WBC count | Anemia (NUP98-HOXD13 MDS mice [4]; [12]): ameliorate anemia | Liver iron content (NUP98-HOXD13 MDS mice [4]; [12]): prevent | Double strand breaks (γH2AX) in LSK cells (NUP98-HOXD13 MDS mice [4]; MDS mice, 3 to 6 months of age): reduced double strand breaks | ROS production in LSK cells (NUP98-HOXD13 MDS mice [4]; MDS mice, 3 to 6 months of age): decreased ROS production | Expression of CD71 on Ter119+ erythroid precursors (NUP98-HOXD13 MDS mice [4]; bone marrow and spleen, MDS mice, 3 to 6 months of age): significant reduction | Overall status of hematopoietic LSK stem cells (NUP98-HOXD13 MDS mice [4]; [13]): improves the overall status; also recorded: overall improvement | Pool of LSK cells (NUP98-HOXD13 MDS mice [4]; [13]): likely preserved | ROS formation in Ter119+ erythroid precursors (NUP98-HOXD13 MDS mice [4]; MDS mice, 3 to 6 months of age): decreasing; also recorded: reduced | ROS formation in Ter119+ erythroid precursors (NUP98-HOXD13 MDS mice [4]; [10]): limit | Iron accumulation in LSK cells (NUP98-HOXD13 MDS mice [4]; labile iron, MDS mice, 3 to 6 months of age): reduced iron accumulation | WBC increase in peripheral blood / leukemia evolution (NUP98-HOXD13 MDS mice [4]; longitudinal, treated from 3 months of age, listed as VIT-2763): delays leukemia evolution; also recorded: not observed or delayed | NTBI levels (NUP98-HOXD13 MDS mice [4]; MDS mice, 3 to 6 months of age): reduces; also recorded: significantly decreased | NTBI levels (NUP98-HOXD13 MDS mice [4]; [10]): prevent NTBI formation | Survival (Kaplan-Meier) (NUP98-HOXD13 MDS mice [4]; treated from 3 months of age): improves MDS mice survival | HCT, longitudinal monitoring (NUP98-HOXD13 MDS mice [4]; [14]): significantly improved | Hb, longitudinal monitoring (NUP98-HOXD13 MDS mice [4]; [14]): significantly improved | RBC, longitudinal monitoring (NUP98-HOXD13 MDS mice [4]; [14]): significantly improved
